System: tobacco budworm (Heliothis virescens)
Assay: Test H: soil systemic control of tobacco budworm on cotton
Type: in vivo
Conditions: soil treatment at 10 ppm
Description: For evaluating soil systemic control of tobacco budworm (Heliothis virescens), cotton plants were grown in sassafras soil in 15-cm pots in aluminum trays. When the plants reached square stage (bud formation on the plant) the plants were treated with the test compounds.
Test compounds were formulated in 0.25 mL of acetone and then diluted with water to provide solutions of 1, 5, 10 and 50 ppm. 10 mL of the treatment solutions were added to the pots weekly for four weeks, with four replicates of each treatment rate. One day after the second, third and fourth treatments, 35-50 first instar Heliothis virescens larvae were brushed on each plant with paintbrushes and placed on the terminal area, squares, and bolls. Five days after the last infestation with larvae the plants were rated for damage. Of the compounds tested, the following provided excellent levels of plant protection at 10 ppm (10% or less feeding damage): 16.

Cc1cc(Br)cc(C(=O)NC(C)C)c1NC(=O)c1cc(Br)nn1-c1ncccc1Cl [Compound 16]
protection of squares and bolls: no feeding or minimal sepal damage
feeding damage (excellent levels of plant protection) (10 mL weekly for four weeks, rated five days after last infestation): ≤ 10%

Reference: patent US9084422B2, “Anthranilamides compositions” (E I DU PONT DE NEMOURS AND COMPANY, priority 2001, dated 2015)
